Laboratory results reported in patent publication US9861703B2 (Jinan Platinum Pharmatech Co. Ltd., priority 2013, dated 2018).
Structures can show the parent of a compound that is named as a salt.

Key:
cell line Hela = assay: MTT proliferation inhibition, Hela; format: cell-based; conditions: 48 h
Procedure: (§1) Human leukemia cell line K562, clear-cell ovarian carcinoma cell line ES-2, human prostate cancer cell line PC-3, human breast cancer cell line MCF-7, cell line Hela, human liver cancer cell line H7402 and human ovarian cancer cell line 3-AO were transferred into a culture flask and were cultured in a medium at 37° C. in a 5% CO2 and saturation humidity. One bottle of cells in logarithmic growth phase was picked out and was blew and beaten to be uniform with a pipette, then took some cell suspension solution to prepare blood counting plate smear to count cells under inverted microscope, and then adjusted the cell number to be 1×10^5/mL by adding some culture medium. Cells were seeded on a 96-well plate on which also drug tests performed. Blank control group, negative control group, positive control group and drug test group were established on the plate while the surrounding wells of the plate were not used (but filled with sterile PBS), wherein the blank control groups were prepared by addition of culture medium 150 μL per well, the negative control groups were prepared by addition of cell suspension solution 100 μL per well and culture medium 50 μL per well, the positive control groups were prepared by addition of cell suspension solution 100 μL per well and positive control drug solution 50 μL per well, the drug test groups were prepared by addition of cell suspension solution 100 μL per well and test compound solution 50 μL per well, and there were 5 different concentrations of drug in the positive control group and the drug test group respectively: 0.01, 0.1, 1, 10, 100 μmol·L^−1, each concentration was established with 3 parallel wells. After the drug was added, the 96-well plate was incubated for 48 h at 37° C. in a CO2 incubator of 5% CO2 and saturation humidity. Upon completion of the incubation, 20 μL MTT solution (concentration was 5 mg/mL) was added to each well and incubated for an additional 4 h, and after the 96-well plate was centrifuged at 2000 rpm for 30 min, medium of each well was suck out carefully and removed and 100 μL DMSO was added instead, followed by vibrating on a tablet shaker for 15 min to re-dissolve formazan crystals completely. OD value of each well was measured at 570 nm wavelength using an enzyme-linked immunosorbent assay reader to calculate cellular proliferation inhibitory ratio of each drug in different concentrations. And half-inhibitory concentration (IC50) was calculated using statistical software SPSS 16.0, wherein the cellular proliferation inhibitory ratio can be calculated as following equation: […]

[1] = test system: 7 cell lines (ES-2, K562, PC-3, MCF-7, Hela, H7402, 3-AO); assay: MTT proliferation inhibition, all 7 tumor cell lines (summary in words); format: cell-based
Procedure: as §1

[2] = test system: human leukemia cell line K562; assay: MTT proliferation inhibition, K562; format: cell-based
Procedure: as §1

[3] = test system: human liver cancer cell line H7402; assay: MTT proliferation inhibition, H7402; format: cell-based
Procedure: as §1

Aminopeptidase N = target: T1, Aminopeptidase N (Sus scrofa, UniProt P15145); assay: Inhibition activity against enzyme in vitro (aminopeptidase N, L-Leu-p-nitroanilide substrate); format: biochemical; conditions: for IC50: 37° C., 0.5 h, absorbance 405 nm, PBS pH 7.2, read-out: IC50(μM) APN
T1 construct: purchased Sigma
T1 sequence (P15145 1-963): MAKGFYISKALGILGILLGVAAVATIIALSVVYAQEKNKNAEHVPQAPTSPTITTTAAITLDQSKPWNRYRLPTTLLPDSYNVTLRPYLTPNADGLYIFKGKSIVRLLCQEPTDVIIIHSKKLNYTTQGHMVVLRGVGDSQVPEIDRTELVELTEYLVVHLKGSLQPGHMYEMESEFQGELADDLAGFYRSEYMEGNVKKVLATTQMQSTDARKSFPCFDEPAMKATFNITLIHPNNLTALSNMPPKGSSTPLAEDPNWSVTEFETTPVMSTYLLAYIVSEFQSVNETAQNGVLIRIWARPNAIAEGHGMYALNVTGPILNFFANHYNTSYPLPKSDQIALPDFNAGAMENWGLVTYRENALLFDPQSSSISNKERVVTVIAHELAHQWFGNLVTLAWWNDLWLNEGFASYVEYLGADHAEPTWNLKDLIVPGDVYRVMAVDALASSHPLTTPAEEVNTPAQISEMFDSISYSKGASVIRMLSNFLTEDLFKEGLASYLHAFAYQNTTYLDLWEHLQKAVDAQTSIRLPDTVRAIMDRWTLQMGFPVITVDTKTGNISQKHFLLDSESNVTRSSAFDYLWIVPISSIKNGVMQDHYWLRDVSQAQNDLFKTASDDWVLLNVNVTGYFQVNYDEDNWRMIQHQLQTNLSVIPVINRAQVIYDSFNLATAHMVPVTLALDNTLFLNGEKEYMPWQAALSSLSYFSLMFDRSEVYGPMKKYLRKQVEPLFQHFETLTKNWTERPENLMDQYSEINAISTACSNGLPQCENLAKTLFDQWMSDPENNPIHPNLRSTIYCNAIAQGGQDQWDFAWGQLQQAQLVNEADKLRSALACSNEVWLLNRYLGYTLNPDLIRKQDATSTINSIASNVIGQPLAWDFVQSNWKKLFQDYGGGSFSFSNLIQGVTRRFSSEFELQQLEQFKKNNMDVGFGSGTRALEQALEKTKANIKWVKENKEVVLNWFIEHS
Procedure: Aminopeptidase N and L-Leu-p-nitroanilide as substrate were purchased from Sigma cooperation.
Preparation of Buffer Solution: 12.89 g Na2HPO4.12H2O and 2.18 g NaH2PO4.2H2O were dissolved in a 1000 mL volumetric flask, then the mixture was diluted to 1000 mL with fresh distilled water to obtain 50 mM Phosphate Buffer solution (PBS, pH 7.2), which was kept at room temperature to spare.
Aminopeptidase N was dissolved in the buffer solution to obtain 0.1 IU/mL solution.
The substrate was dissolved in DMSO to obtain a […] solution, which was kept in refrigerator to spare.
The aminopeptidase N solution 10 μL, the substrate solution 5 μL and compound with different concentration 40 μL were added into a 96-well cell plate, and then adjusted to 200 μL with phosphate buffer saline solution (pH 7.2). […] And the substrate solution 5 μL of blank group was adjusted to 200 μL with buffer solution. The mixture was incubated at 37° C. for 0.5 h, and absorbance was then determined at 405 nm wavelength Inhibitory ratio can be calculated as follows: […]
According to concentration of compound and corresponding inhibitory ratio, the IC50 value was calculated by using a fitting curve of Origin 7.5 software.

[4] = test system: human ovarian cancer cell line 3-AO; assay: MTT proliferation inhibition, 3-AO; format: cell-based; conditions: 48 h
Procedure: as §1

[5] = test system: human breast cancer cell line MCF-7; assay: MTT proliferation inhibition, MCF-7; format: cell-based
Procedure: as §1

[6] = test system: clear-cell ovarian carcinoma cell line ES-2; assay: MTT proliferation inhibition, ES-2; format: cell-based; conditions: 48 h
Procedure: as §1

[7] = test system: human prostate cancer cell line PC-3; assay: MTT proliferation inhibition, PC-3; format: cell-based; conditions: 48 h
Procedure: as §1

H22 tumor cells = assay: Activities of compounds in H22 tumor cells bearing Kunming mice models (Example 34); conditions: intravenous injection, 58.3 mg/kg/d (0.1 mmol/kg/d)
Procedure: The ascites was extracted from H22 tumour bearing mice with well growth, followed by adding sterile PBS to dilute the ascites to a concentration of 8.5×10^7 cells/mL. 100 uL of the cells solution was suck up by a 1 mL sterile injector to inoculate into right oxter of mice. After 3 days, the mice were weighted and randomized to several groups (almost 8 mice per group, and a bit more in control group). These mice were administrated a predetermined dosage by intravenous or oral gavage with two days off when having administrated for 5 days until two cycles one of which had 7 days. The body weight of mouse was recorded at the beginning and ending of every cycle,
After being administrated for two cycles, the mice were weighted and recorded, then sacrificed by cervical dislocation to get lung, liver and spleen weighted respectively.
Overall difference was calculated by the function of one-way analysis of variance (One-Way ANOVA) in Origin 7.5 software; and t-test was used for pair-comparison between drug administrated group and blank group, and the inhibitory ratio of drug in each group was calculated based on the following equation: inhibitory ratio (100%)=(mean tumor weight of control group−mean tumor weight of drug administrated group)/mean tumor weight of control group×100.

In the case of `CC(C)C[C@H](NC(=O)[C@@H](O)[C@H](N)Cc1ccccc1)C(=O)ONC(N)=O` [Compound 22, (2S,3R)-3-amino-2-hydroxy-N—((S)-4-methylvaleryl)oxy)ureido)-4-phenylbutanamide hydrochloride], the EC50 (cell line Hela; Homo sapiens) was 5.55 µM, the “anti-proliferation effect against all the tumor cells” value (from here on “anti-proliferation effect”) [1] was “obvious anti-proliferation effect” and the “proliferation inhibition activity compared with 5-FU” value [1] was “much more potent than 5-FU”. The EC50 ([2]; Homo sapiens, K562, 48 h) was 6.52 µM, the EC50 ([3]; Homo sapiens, H7402, 48 h) was 7.98 µM and the “inhibitory activity against aminopeptidase N compared with positive control ubenimex” value (Aminopeptidase N) was “comparable activity with ubenimex”. The IC50 (Aminopeptidase N) was 2.92 µM, the EC50 ([4]; Homo sapiens) was 9.06 µM and the EC50 ([5]; Homo sapiens, MCF7, 48 h) was 6.74 µM. It also gave an EC50 ([6]; Ovarian carcinoma cell) of 5.66 µM and an EC50 ([7]; Homo sapiens) of 13.3 µM.

With `CC(C)C[C@H](NC(=O)[C@@H](O)[C@H](N)Cc1ccccc1)C(=O)NCCC(=O)OCn1cc(F)c(=O)[nH]c1=O` [BC-04, (5-fluoro-2,4-dioxo-3,4-dihydropyrimidinyl-1(2H))methyl-4-((S)-2-((2S,3R)-3-amino-2-hydroxy-4-phenylbutanamido)-4-methylpentanamido)propanoate hydrochloride] the “inhibitory activity against aminopeptidase N compared with positive control ubenimex” value (Aminopeptidase N) was “much more potent than the positive control drug ubenimex” and the IC50 (Aminopeptidase N) was 1.3 µM.

For `CC(C)C[C@H](NC(=O)[C@@H](O)[C@H](N)Cc1ccccc1)C(=O)N[C@@H](C)C(=O)OCn1cc(F)c(=O)[nH]c1=O.Cl` [BC-03, (S)-(5-fluoro-2,4-dioxo-3,4-dihydropyrimidinyl-1(2H))methyl-2-((S)-2-((2S,3R)-3-amino-2-hydroxy-4-phenylbutanamido)-4-methylpentanamido)propanoate hydrochloride], the “inhibitory activity against aminopeptidase N compared with positive control ubenimex” value (Aminopeptidase N) was “much more potent than the positive control drug ubenimex” and the IC50 (Aminopeptidase N) was 0.36 µM.

`CC(C)C[C@H](NC(=O)[C@@H](O)[C@H](N)Cc1ccccc1)C(=O)NCCCC(=O)OCn1cc(F)c(=O)[nH]c1=O` [BC-05, (5-fluoro-2,4-dioxo-3,4-dihydropyrimidinyl-1(2H))methyl-6-((S)-2-((2S,3R)-3-amino-2-hydroxy-4-phenylbutanamido)-4-methylpentanamido)butanoate hydrochloride] was tested, and the “inhibitory activity against aminopeptidase N compared with positive control ubenimex” value (Aminopeptidase N) was “much more potent than the positive control drug ubenimex” and the IC50 (Aminopeptidase N) was 1.39 µM.

For “(S)-2-(4-(6-(5-(2-chloro-6-methylphenyl)-2-thiazolylcarbonyl amino)-2-methyl-4-pyrimidinyl)-1-piperazinyl)ethyl-2-((2S,3R)-3-amino-2-hydroxy-4-phenylbutyryl)-4-methylpentanoate hydrochloride [Compound 32]”, the EC50 (cell line Hela) was 3.23 µM, the “anti-proliferation effect” value [1] was “obvious anti-proliferation effect” and the “proliferation inhibition activity compared with 5-FU” value [1] was “much more potent than 5-FU”. For the same molecule, the EC50 ([2]; 48 h) was 6.33 µM, the EC50 ([3]; 48 h) was 6.75 µM and the “inhibitory activity against aminopeptidase N compared with positive control ubenimex” value (Aminopeptidase N) was “comparable activity with ubenimex”. For the same molecule, the IC50 (Aminopeptidase N) was 7.88 µM, the EC50 [4] was 4.89 µM and the EC50 ([5]; 48 h) was 3.65 µM. For the same molecule, the EC50 [6] was 6.45 µM and the EC50 [7] was 14.1 µM.

`CC(C)C[C@H](NC(=O)[C@@H](O)[C@H](N)Cc1ccccc1)C(=O)O` [ubenimex, Ubenimex, reference compound] was tested, and the EC50 (cell line Hela; Homo sapiens) was 79.6 µM, the EC50 ([2]; Homo sapiens, K562, 48 h) was > 400 µM and the EC50 ([3]; Homo sapiens, H7402, 48 h) was 189 µM. For the same molecule, the EC50 ([4]; Homo sapiens) was > 400 µM, the EC50 ([5]; Homo sapiens, MCF7, 48 h) was 32.7 µM and the EC50 ([6]; Ovarian carcinoma cell) was > 400 µM. The EC50 ([7]; Homo sapiens) was > 400 µM.

“(S)-2-((2S,4S)-4-((2S,4S,5R,6S)-4-((tert-butoxycarbonyl)amino)-5-hydroxy-6-methyl-2(2H)-tetrahydropyranyloxy))-2,5,12-trihydroxy-7-methoxy-6,11-dioxo-2-(1,2,3,4,6,11-hexahydrotetracenyl)-2-ethoxy-2-((2S,3R)-3-amino-2-hydroxy-4-phenylbutyryl)-4-methylpentanoate hydrochloride [Compound 28]” was tested, and the EC50 (cell line Hela) was 1.99 µM, the “anti-proliferation effect” value [1] was “obvious anti-proliferation effect” and the “proliferation inhibition activity compared with 5-FU” value [1] was “much more potent than 5-FU”. The EC50 ([2]; 48 h) was 4.35 µM, the EC50 ([3]; 48 h) was 4.02 µM and the “inhibitory activity against aminopeptidase N compared with positive control ubenimex” value (Aminopeptidase N) was “comparable activity with ubenimex”. It also gave an IC50 (Aminopeptidase N) of 5.56 µM, an EC50 [4] of 3.02 µM and an EC50 ([5]; 48 h) of 2.55 µM. It also gave an EC50 [6] of 3.34 µM and an EC50 [7] of 7.67 µM.

For `CC(C)C[C@H](NC(=O)[C@@H](O)[C@H](N)Cc1ccccc1)C(=O)NCCCCCC(=O)OCn1cc(F)c(=O)[nH]c1=O` [BC-06, hydrochloride], the “inhibitory activity against aminopeptidase N compared with positive control ubenimex” value (Aminopeptidase N) was “much more potent than the positive control drug ubenimex” and the IC50 (Aminopeptidase N) was 4.66 µM.

In the case of `CC(C)C[C@H](NC(=O)[C@@H](O)[C@H](N)Cc1ccccc1)C(=O)N1CCC[C@H]1C(=O)OCn1cc(F)c(=O)[nH]c1=O` [BC-07, (S)-(5-fluoro-2,4-dioxo-3,4-dihydropyrimidinyl-1(2H))methyl-1-((S)-2-((2S,3R)-3-amino-2-hydroxy-4-phenylbutanamido)-4-methylpentanamido)-2-tetrahydropyrrolidine carboxylate hydrochloride], the “Number of mice alive” value (H22 tumor cells; 8 mice, two cycles) was 6, the “Tumor growth inhibition (%)” value (H22 tumor cells; after two cycles) was 43.61% and the “Tumor weight” value (H22 tumor cells; after two cycles) was 0.34 ± 0.24 g. For the same molecule, the “Body weight(g) Beginning” value (H22 tumor cells; beginning) was 32.17 ± 3.86 g, the “Body weight(g) Ending” value (H22 tumor cells; ending) was 31.44 ± 5.01 g and the “inhibitory activity against aminopeptidase N compared with positive control ubenimex” value (Aminopeptidase N) was “much more potent than the positive control drug ubenimex”. For the same molecule, the IC50 (Aminopeptidase N) was 0.15 µM.
